Laboratory results from ChEMBL document CHEMBL3739323, “Design, synthesis, and biological evaluation of novel quinazolinyl-diaryl urea derivatives as potential anticancer agents” (Eur J Med Chem, 2016).
pIC50: −log10 of the molar value. Activity calls are given as the source filed them. The calls are words filed in the database; no cut-off is given here.

Tests used:
[1] = Antiproliferative activity against human MGC803 cells by MTT assay; assay type: functional, cell-based; conditions: MGC-803
A549 [2] = experiment: Antiproliferative activity against human A549 cells by MTT assay; assay type: functional, cell-based
HepG2 = experiment: Antiproliferative activity against human HepG2 cells by MTT assay; assay type: functional, cell-based
A549 [3] = experiment: Induction of apoptosis in human A549 cells assessed as upregulation of Bax expression at 10 uM after 48 hrs by Western blot analysis; assay type: functional, cell-based
A549 [4] = experiment: Cell cycle arrest in human A549 cells assessed as accumulation at S phase at 10 uM by propidium iodide staining based flow cytometric analysis (reference value: 23.41 +/- 2.19%); assay type: functional
A549 [5] = experiment: Induction of apoptosis in human A549 cells assessed as late apoptotic cells at 10 uM after 6 hrs by Annexin-V-FITC/Propidium iodide staining based flow cytometric analysis (reference value: 0.41 +/- 0.19%); assay type: functional
A549 [6] = experiment: Cell cycle arrest in human A549 cells assessed as accumulation at G2/M phase at 10 uM by propidium iodide staining based flow cytometric analysis (reference value: 12.77 +/- 1.55%); assay type: functional
A549 [7] = experiment: Induction of apoptosis in human A549 cells assessed as early apoptotic cells at 10 uM after 48 hrs by Annexin-V/Propidium iodide dual staining based flow cytometric analysis (reference value: 3.53 +/- 0.89%); assay type: functional
A549 [8] = experiment: Induction of apoptosis in human A549 cells assessed as necrotic cells at 10 uM after 6 hrs by Annexin-V-FITC/Propidium iodide staining based flow cytometric analysis (reference value: 0.28 +/- 0.09%); assay type: functional
A549 [9] = experiment: Induction of apoptosis in human A549 cells assessed as upregulation of caspase-3 expression at 10 uM after 48 hrs by Western blot analysis; assay type: functional, cell-based
A549 [10] = experiment: Induction of apoptosis in human A549 cells assessed as early apoptotic cells at 10 uM after 6 hrs by Annexin-V-FITC/Propidium iodide staining based flow cytometric analysis (reference value: 3.83 +/- 0.49%); assay type: functional
A549 [11] = experiment: Induction of apoptosis in human A549 cells assessed as viable cells at 10 uM after 6 hrs by Annexin-V-FITC/Propidium iodide staining based flow cytometric analysis (reference value: 95.48 +/- 2.03%); assay type: functional; conditions: A549, 6 h, read-out: Activity
A549 [12] = experiment: Induction of apoptosis in human A549 cells assessed as downregulation of Bcl-2 expression at 10 uM after 48 hrs by Western blot analysis; assay type: functional, cell-based
A549 [13] = experiment: Induction of apoptosis in human A549 cells assessed as viable cells at 10 uM after 48 hrs by Annexin-V-FITC/Propidium iodide staining based flow cytometric analysis (reference value: 92.46 +/- 4.23%); assay type: functional; conditions: A549, 48 h, read-out: Activity
A549 [14] = experiment: Induction of apoptosis in human A549 cells assessed as necrotic cells at 10 uM after 48 hrs by Annexin-V/Propidium iodide dual staining based flow cytometric analysis (reference value: 2.57 +/- 0.39%); assay type: functional
A549 [15] = experiment: Cell cycle arrest in human A549 cells assessed as accumulation at G0/G1 phase at 10 uM by propidium iodide staining based flow cytometric analysis (reference value: 63.82 +/- 2.66%); assay type: functional
A549 [16] = experiment: Induction of apoptosis in human A549 cells assessed as late apoptotic cells at 10 uM after 48 hrs by Annexin-V/Propidium iodide dual staining based flow cytometric analysis (reference value: 1.44 +/- 0.43%); assay type: functional
A549 [17] = experiment: Induction of apoptosis in human A549 cells assessed as upregulation of caspase-8 expression at 10 uM after 48 hrs by Western blot analysis; assay type: functional, cell-based
A549 [18] = experiment: Induction of apoptosis in human A549 cells assessed as increase in ROS production at 10 uM after 12 hrs by DCF staining based luminescence spectrometric analysis; assay type: functional, cell-based
[19] = target: RAF proto-oncogene serine/threonine-protein kinase (Homo sapiens) (UniProt P04049); conditions: A549, 10 uM
RAF proto-oncogene serine/threonine-protein kinase (Homo sapiens), sequence (P04049 whole entry): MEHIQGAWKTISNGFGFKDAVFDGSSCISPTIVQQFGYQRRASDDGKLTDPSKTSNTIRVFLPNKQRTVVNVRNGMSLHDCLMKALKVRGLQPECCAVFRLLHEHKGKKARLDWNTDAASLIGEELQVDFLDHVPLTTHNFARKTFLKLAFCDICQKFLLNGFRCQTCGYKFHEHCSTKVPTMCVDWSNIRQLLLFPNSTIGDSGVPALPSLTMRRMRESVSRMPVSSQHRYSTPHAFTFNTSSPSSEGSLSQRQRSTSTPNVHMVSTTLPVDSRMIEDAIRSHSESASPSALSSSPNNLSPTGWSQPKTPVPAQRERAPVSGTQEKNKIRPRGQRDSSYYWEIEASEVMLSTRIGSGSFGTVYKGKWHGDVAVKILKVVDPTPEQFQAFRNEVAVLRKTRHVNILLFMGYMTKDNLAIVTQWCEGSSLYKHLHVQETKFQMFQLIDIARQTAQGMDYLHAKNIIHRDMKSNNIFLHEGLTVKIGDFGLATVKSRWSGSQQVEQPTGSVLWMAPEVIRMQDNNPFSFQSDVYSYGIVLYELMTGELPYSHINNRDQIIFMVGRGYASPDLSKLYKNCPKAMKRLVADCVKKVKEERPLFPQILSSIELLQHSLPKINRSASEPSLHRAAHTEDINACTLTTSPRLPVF
Description: Inhibition of C-Raf in human A549 cells at 10 uM after 48 hrs by Western blot analysis

Row | pIC50 (A549 [2]) | pIC50 (HepG2) | Compound | pIC50 [1] | also measured
1 | 4.60 | < 4.30 | Cc1ccc(NC(=O)Nc2cccc(CNc3ncnc4ccccc34)c2)cc1 | 4.51 | –
2 | 4.75 | < 4.30 | O=C(Nc1cccc(CNc2ncnc3ccccc23)c1)Nc1ccccc1Cl | < 4.30 | –
3 | < 4.30 | < 4.30 | O=C(Nc1cccc(Cl)c1)Nc1cccc(CNc2ncnc3ccccc23)c1 | 4.72 | –
4 | 4.89 | < 4.30 | COc1cc2ncnc(NCc3cccc(NC(=O)Nc4ccc(C)cc4)c3)c2cc1OC | 4.47 | –
5 | 4.52 | < 4.30 | COc1cc2ncnc(NCc3cccc(NC(=O)Nc4ccc(Cl)cc4)c3)c2cc1OC | 4.35 | –
6 | 4.75 | 4.77 | CC(C)(C)c1ccc(NC(=O)Nc2cccc(CNc3ncnc4ccccc34)c2)cc1 | 5.13 | –
7 | 4.53 | < 4.30 | COc1ccc(NC(=O)Nc2cccc(CNc3ncnc4ccccc34)c2)cc1 | 4.56 | –
8 | 4.67 | < 4.30 | COc1cc2ncnc(NCc3cccc(NC(=O)Nc4ccccc4C)c3)c2cc1OC | < 4.30 | –
9 | 4.62 | 4.60 | COc1cc2ncnc(NCc3cccc(NC(=O)Nc4ccccc4F)c3)c2cc1OC | 4.99 | –
10 | – | – | COc1cc2ncnc(Nc3ccc(F)c(Cl)c3)c2cc1OCCCN1CCOCC1 [GEFITINIB] | – | Activity (A549 [4]): 3.61%; Activity (A549 [5]): 5.27%; Activity (A549 [6]): 4.04%; Activity (A549 [7]): 1%; Activity (A549 [8]): 0.94%; Activity (A549 [9]): Active; Activity (A549 [10]): 5.81%; viability at 10 µM (A549 [11]): 88%; viability at 10 µM (A549 [13]): 83.1%; Activity (A549 [14]): 11%; Activity (A549 [15]): 92.35%; Activity (A549 [16]): 4.92%; Activity (A549 [17]): Active; Activity (A549 [18]): Active
11 | 4.51 | 4.76 | COc1ccccc1NC(=O)Nc1cccc(CNc2ncnc3ccccc23)c1 | 4.41 | –
12 | 4.58 | 4.76 | O=C(Nc1cccc(CNc2ncnc3ccccc23)c1)Nc1ccccc1F | 4.48 | –
13 | 4.53 | 4.50 | COC(=O)c1ccccc1NC(=O)Nc1cccc(CNc2ncnc3cc(OC)c(OC)cc23)c1 | 5.05 | –
14 | 4.82 | 4.59 | COc1cc2ncnc(NCc3cccc(NC(=O)Nc4ccccc4Cl)c3)c2cc1OC | 4.52 | –
15 | 4.40 | < 4.30 | Cc1ccccc1NC(=O)Nc1cccc(CNc2ncnc3ccccc23)c1 | < 4.30 | –
16 | 4.68 | 4.38 | O=C(Nc1ccc(F)cc1)Nc1cccc(CNc2ncnc3ccccc23)c1 | 4.35 | –
17 | 4.64 | 4.45 | COc1cc2ncnc(NCc3cccc(NC(=O)Nc4cccc(Cl)c4)c3)c2cc1OC | < 4.30 | –
18 | 4.82 | 4.57 | COc1ccccc1NC(=O)Nc1cccc(CNc2ncnc3cc(OC)c(OC)cc23)c1 | 5.11 | –
19 | 4.61 | < 4.30 | COc1ccc(NC(=O)Nc2cccc(CNc3ncnc4cc(OC)c(OC)cc34)c2)cc1 | 4.91 | –
20 | 4.53 | < 4.30 | COC(=O)c1ccccc1NC(=O)Nc1cccc(CNc2ncnc3ccccc23)c1 | 5.02 | –
21 | < 4.30 | 4.61 | O=C(Nc1ccc([N+](=O)[O-])cc1)Nc1cccc(CNc2ncnc3ccccc23)c1 | 5.03 | –
22 | 4.77 | 4.44 | COc1cc2ncnc(NCc3cccc(NC(=O)Nc4ccc(F)cc4)c3)c2cc1OC | 4.38 | –
23 | 4.74 | < 4.30 | O=C(Nc1ccccc1)Nc1cccc(CNc2ncnc3ccccc23)c1 | 4.88 | –
24 | 4.45 | 4.47 | COc1cc2ncnc(NCc3cccc(NC(=O)Nc4cccc(C(F)(F)F)c4)c3)c2cc1OC | < 4.30 | –
25 | 4.52 | < 4.30 | Cc1cccc(NC(=O)Nc2cccc(CNc3ncnc4ccccc34)c2)c1 | 4.52 | –
26 | 4.35 | 4.40 | O=C(Nc1cccc(CNc2ncnc3ccccc23)c1)Nc1cccc(C(F)(F)F)c1 | < 4.30 | –
27 | 4.77 | 4.71 | COc1cc2ncnc(NCc3cccc(NC(=O)Nc4ccccc4)c3)c2cc1OC | 5.00 | –
28 | 4.57 | 4.67 | COc1cc2ncnc(NCc3cccc(NC(=O)Nc4cccc(C)c4)c3)c2cc1OC | 4.35 | –
29 | < 4.30 | < 4.30 | O=C(Nc1ccc(Cl)cc1)Nc1cccc(CNc2ncnc3ccccc23)c1 | 4.58 | –
30 | < 4.30 | 4.72 | COc1cc2ncnc(NCc3cccc(NC(=O)Nc4ccc([N+](=O)[O-])cc4)c3)c2cc1OC | 5.09 | –

Row | Compound | pIC50 (A549 [2]) | pIC50 (HepG2) | pIC50 [1] | also measured
31 | CNC(=O)c1cc(Oc2ccc(NC(=O)Nc3ccc(Cl)c(C(F)(F)F)c3)cc2)ccn1 [SORAFENIB] | 4.87 | 5.04 | 5.10 | Activity (A549 [3]): Active; Activity (A549 [4]): 5.79%; Activity (A549 [5]): 6.23%; Activity (A549 [6]): 3.93%; Activity (A549 [7]): 0.9%; Activity (A549 [8]): 0.7%; Activity (A549 [9]): Active; Activity (A549 [10]): 9.33%; viability at 10 µM (A549 [11]): 83.7%; Activity (A549 [12]): Active; viability at 10 µM (A549 [13]): 72.8%; Activity (A549 [14]): 19.9%; Activity (A549 [15]): 90.27%; Activity (A549 [16]): 6.38%; Activity (A549 [17]): Active; Activity (A549 [18]): Active; inhibition [19]: Active
